Data published in PubChem BioAssay (NCI).
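GI50 = concentration required for 50% inhibition of growth. TGI: total growth inhibition.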

Assays:
Test in all cases: NCI tumour cell line growth inhibition, 384-well format
MDA-MB-231 breast = tested on: MDA-MB-231 breast
RXF 393 renal = tested on: RXF 393 renal
NCI-H522 lung = tested on: NCI-H522 lung
M14 melanoma = tested on: M14 melanoma
HL-60(TB) leukemia = tested on: HL-60(TB) leukemia
ACHN renal = tested on: ACHN renal
OVCAR-4 ovarian = tested on: OVCAR-4 ovarian
SK-MEL-2 melanoma = tested on: SK-MEL-2 melanoma
NCI-H226 lung = tested on: NCI-H226 lung
SR leukemia = tested on: SR leukemia
MDA-MB-435 melanoma = tested on: MDA-MB-435 melanoma
UO-31 renal = tested on: UO-31 renal
A498 renal = tested on: A498 renal
MALME-3M melanoma = tested on: MALME-3M melanoma
EKVX NSCLC = tested on: EKVX NSCLC
NCI-H322M lung = tested on: NCI-H322M lung
MCF7 breast = tested on: MCF7 breast
HOP-62 NSCLC = tested on: HOP-62 NSCLC
SW-620 colon = tested on: SW-620 colon
T-47D breast = tested on: T-47D breast
SF-268 CNS = tested on: SF-268 CNS
OVCAR-8 ovarian = tested on: OVCAR-8 ovarian
A549 NSCLC = tested on: A549 NSCLC
OVCAR-5 ovarian = tested on: OVCAR-5 ovarian
SF-539 CNS = tested on: SF-539 CNS
COLO 205 colon = tested on: COLO 205 colon
MDA-MB-468 breast = tested on: MDA-MB-468 breast
UACC-257 melanoma = tested on: UACC-257 melanoma

`CC(C)[C@H]1C(=O)N[C@@H](CCCN=C(N)N)C(=O)NCC(=O)N[C@@H](CC(=O)O)C(=O)N[C@H](Cc2ccccc2)C(=O)N1C` was tested. Which GI50 (MDA-MB-231 breast) did it give?
Its GI50 is 35.5 µM.

And the TGI (MDA-MB-231 breast)?
Its TGI is > 100 µM.

And the GI50 (RXF 393 renal)?
The GI50 was 0.194 µM.

And the TGI (RXF 393 renal)?
Its TGI is 0.858 µM.

And the GI50 (NCI-H522 lung)?
Its GI50 is 3.98 µM.

What about the TGI (NCI-H522 lung) of the same compound?
Its TGI is > 100 µM.

What about the GI50 (M14 melanoma) of the same compound?
Its GI50 is > 100 µM.

What about the TGI (M14 melanoma) of the same compound?
The TGI was > 100 µM.

What about the GI50 (HL-60(TB) leukemia) of the same compound?
The GI50 was 42.7 µM.

And the TGI (HL-60(TB) leukemia)?
Its TGI is > 100 µM.

And the GI50 (ACHN renal)?
Its GI50 is 4.33 µM.

And the TGI (ACHN renal)?
The TGI was > 100 µM.

What about the GI50 (OVCAR-4 ovarian) of the same compound?
Its GI50 is 7.1 µM.

What about the TGI (OVCAR-4 ovarian) of the same compound?
The TGI was > 100 µM.

What about the GI50 (SK-MEL-2 melanoma) of the same compound?
Its GI50 is > 100 µM.

And the TGI (SK-MEL-2 melanoma)?
The TGI was > 100 µM.

And the GI50 (NCI-H226 lung)?
The GI50 was 5.9 µM.

What about the TGI (NCI-H226 lung) of the same compound?
Its TGI is > 100 µM.

And the GI50 (SR leukemia)?
The GI50 was 2.59 µM.

What about the TGI (SR leukemia) of the same compound?
The TGI was 12.2 µM.

What about the GI50 (MDA-MB-435 melanoma) of the same compound?
Its GI50 is > 100 µM.

And the TGI (MDA-MB-435 melanoma)?
Its TGI is > 100 µM.

And the GI50 (UO-31 renal)?
The GI50 was 5.4 µM.

What about the TGI (UO-31 renal) of the same compound?
Its TGI is 99.4 µM.

And the GI50 (A498 renal)?
Its GI50 is 0.765 µM.

What about the TGI (A498 renal) of the same compound?
Its TGI is > 100 µM.

And the GI50 (MALME-3M melanoma)?
Its GI50 is > 100 µM.

What about the TGI (MALME-3M melanoma) of the same compound?
Its TGI is > 100 µM.

What about the GI50 (EKVX NSCLC) of the same compound?
Its GI50 is 2.3 µM.

And the TGI (EKVX NSCLC)?
Its TGI is 9.86 µM.

And the GI50 (NCI-H322M lung)?
The GI50 was > 100 µM.

What about the TGI (NCI-H322M lung) of the same compound?
The TGI was > 100 µM.

What about the GI50 (MCF7 breast) of the same compound?
The GI50 was 13.9 µM.

What about the TGI (MCF7 breast) of the same compound?
The TGI was > 100 µM.

What about the GI50 (HOP-62 NSCLC) of the same compound?
The GI50 was 4.51 µM.

And the TGI (HOP-62 NSCLC)?
Its TGI is > 100 µM.

What about the GI50 (SW-620 colon) of the same compound?
The GI50 was 37.8 µM.

What about the TGI (SW-620 colon) of the same compound?
The TGI was > 100 µM.

And the GI50 (T-47D breast)?
The GI50 was 38.3 µM.

And the TGI (T-47D breast)?
The TGI was > 100 µM.

And the GI50 (SF-268 CNS)?
The GI50 was 3.29 µM.

And the TGI (SF-268 CNS)?
The TGI was > 100 µM.

What about the GI50 (OVCAR-8 ovarian) of the same compound?
Its GI50 is 11 µM.

And the TGI (OVCAR-8 ovarian)?
Its TGI is > 100 µM.

And the GI50 (A549 NSCLC)?
The GI50 was 39.3 µM.

What about the TGI (A549 NSCLC) of the same compound?
The TGI was > 100 µM.

What about the GI50 (OVCAR-5 ovarian) of the same compound?
Its GI50 is 74.5 µM.

And the TGI (OVCAR-5 ovarian)?
Its TGI is > 100 µM.

What about the GI50 (SF-539 CNS) of the same compound?
The GI50 was 27.2 µM.

What about the TGI (SF-539 CNS) of the same compound?
The TGI was > 100 µM.

And the GI50 (COLO 205 colon)?
The GI50 was > 100 µM.

What about the TGI (COLO 205 colon) of the same compound?
Its TGI is > 100 µM.

What about the GI50 (MDA-MB-468 breast) of the same compound?
The GI50 was 59.8 µM.

What about the TGI (MDA-MB-468 breast) of the same compound?
The TGI was > 100 µM.

What about the GI50 (UACC-257 melanoma) of the same compound?
Its GI50 is > 100 µM.
